Values joined by “and” are separate entries in the source; they are usually repeats but may differ in a detail not shown here. Equal values may be shown once. Toxic doses and inconclusive results are not listed.
System: CD2F1 mice, L1210 leukemia sc, survival T/C
Assay: NCI In Vivo Anticancer Drug Screen. Data for tumor model L1210 Leukemia (subcutaneous) in CD2F1 (CDF1) mice
Conditions: endpoint: median survival time, higher = longer survival
Summary of the method: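 Transplantable tumor-bearing mice were treated with compound; survival or tumor size measured and expressed as treated-group value (T) divided by vehicle-treated control value (C).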

**Q.** What does the source list for `NCCCN=c1ccc2c3c1c(O)c1c(O)ccc(=O)c1c3[nH]n2CCNCCO`?
**A.** T/C (dose: 0.8 mg/kg/injection, schedule: Q03HX024 (ip), vehicle: saline): 118 % of control; T/C (dose: 2.2 mg/kg/injection, schedule: Q03HX024 (ip), vehicle: saline): 161 % of control; T/C (dose: 2.34 mg/kg/injection, schedule: Q03HX008 (ip), vehicle: saline): 124 % of control; T/C (dose: 3.46 mg/kg/injection, schedule: Q01DX009 (ip), vehicle: water): 114 % of control; T/C (dose: 3.6 mg/kg/injection, schedule: Q03HX024 (ip), vehicle: saline): 212 % of control; T/C (dose: 3.7 mg/kg/injection, schedule: Q01DX005 (ip), vehicle: saline): 121 % of control; T/C (dose: 3.7 mg/kg/injection, schedule: Q04DX003 (ip), vehicle: saline): 115 % of control; T/C (dose: 5.7 mg/kg/injection, schedule: Q01DX009 (ip), vehicle: water): 121 % of control; T/C (dose: 6.2 mg/kg/injection, schedule: Q04DX003 (ip), vehicle: saline): 110 % of control; T/C (dose: 6.4 mg/kg/injection, schedule: Q03HX008 (ip), vehicle: saline): 175 % of control; T/C (dose: 9.6 mg/kg/injection, schedule: Q01DX009 (ip), vehicle: saline): 207 % of control; T/C (dose: 10.4 mg/kg/injection, schedule: Q01DX005 (ip), vehicle: saline): 182 % of control; T/C (dose: 10.4 mg/kg/injection, schedule: Q03HX008 (ip), vehicle: saline): 86 % of control; T/C (dose: 11.2 mg/kg/injection, schedule: Q01DX001 (ip), vehicle: saline): 120 % of control; T/C (dose: 16.0 mg/kg/injection, schedule: Q01DX009 (ip), vehicle: saline): 121 % of control; T/C (dose: 16.0 mg/kg/injection, schedule: Q01DX009 (ip), vehicle: water): 208 % of control; T/C (dose: 17.3 mg/kg/injection, schedule: Q01DX005 (ip), vehicle: saline): 215 % of control; T/C (dose: 17.3 mg/kg/injection, schedule: Q04DX003 (ip), vehicle: saline): 153 % of control; T/C (dose: 18.7 mg/kg/injection, schedule: Q01DX001 (ip), vehicle: saline): 119 % of control; T/C (dose: 26.7 mg/kg/injection, schedule: Q01DX009 (ip), vehicle: saline): 95 % of control; T/C (dose: 26.7 mg/kg/injection, schedule: Q01DX009 (ip), vehicle: water): 96 % of control; T/C (dose: 28.8 mg/kg/injection, schedule: Q01DX005 (ip), vehicle: saline): 107 % of control; T/C (dose: 28.8 mg/kg/injection, schedule: Q04DX003 (ip), vehicle: saline): 182 % of control; T/C (dose: 48.0 mg/kg/injection, schedule: Q04DX003 (ip), vehicle: saline): 268 % of control; T/C (dose: 51.3 mg/kg/injection, schedule: Q01DX001 (ip), vehicle: saline): 153 % of control; T/C (dose: 80.0 mg/kg/injection, schedule: Q04DX003 (ip), vehicle: saline): 118 % of control; T/C (dose: 86.4 mg/kg/injection, schedule: Q01DX001 (ip), vehicle: saline): 225 % of control

**Q.** How did the T/C (dose: 23.0 mg/kg/injection, schedule: Q01DX Z (sc), vehicle: water) turn out when `CC(C)CCNc1ncnc2c1cnn2C` was run?
**A.** Its T/C is 100 % of control.

**Q.** And the T/C (dose: 39.0 mg/kg/injection, schedule: Q01DX Z (sc), vehicle: water)?
**A.** The T/C was 100 % of control.

**Q.** And the T/C (dose: 65.0 mg/kg/injection, schedule: Q01DX Z (sc), vehicle: water)?
**A.** The T/C was 100 % of control.

**Q.** And the T/C (dose: 108.0 mg/kg/injection, schedule: Q01DX Z (sc), vehicle: water)?
**A.** Its T/C is 109 % of control.

**Q.** What about the T/C (dose: 180.0 mg/kg/injection, schedule: Q01DX Z (sc), vehicle: water) of the same molecule?
**A.** Its T/C is 100 % of control.

**Q.** Which results are given for `O=C(O)c1[nH]c(=O)[nH]c(=O)c1F`?
**A.** T/C (dose: 3.0 mg/kg/injection, schedule: Q01DX Z (sc), vehicle: saline): 111 % of control; T/C (dose: 8.4 mg/kg/injection, schedule: Q01DX Z (sc), vehicle: saline): 177 % of control; T/C (dose: 14.0 mg/kg/injection, schedule: Q01DX Z (sc), vehicle: saline): 155 % of control; T/C (dose: 23.0 mg/kg/injection, schedule: Q01DX Z (sc), vehicle: saline): 166 % of control; T/C (dose: 39.0 mg/kg/injection, schedule: Q01DX Z (sc), vehicle: saline): 155 % of control

**Q.** With `CCN(CC)CCNc1ccc(CO)c2sc3ccccc3c(=O)c12` as the molecule, how does the T/C (dose: 10.0 mg/kg/injection, schedule: Q01DX009 (ip), vehicle: water) read?
**A.** The T/C was 103 % of control and 110 % of control and 116 % of control.

**Q.** What about the T/C (dose: 20.0 mg/kg/injection, schedule: Q01DX009 (ip), vehicle: water) of the same molecule?
**A.** The T/C was 113 % of control and 115 % of control and 121 % of control.

**Q.** What about the T/C (dose: 40.0 mg/kg/injection, schedule: Q01DX009 (ip), vehicle: water) of the same molecule?
**A.** Its T/C is 150 % of control.

**Q.** And the T/C (dose: 80.0 mg/kg/injection, schedule: Q01DX009 (ip), vehicle: water)?
**A.** Its T/C is 100 % of control.

**Q.** What about the T/C (dose: 160.0 mg/kg/injection, schedule: Q01DX009 (ip), vehicle: water) of the same molecule?
**A.** The T/C was 103 % of control and 86 % of control and 94 % of control.

**Q.** How did the T/C (dose: 17.0 mg/kg/injection, schedule: Q01DX Z (sc), vehicle: other) turn out when `CN(Cc1cnc2nc(N)nc(N)c2n1)c1c(Cl)cc(C(=O)NC(CCC(=O)O)C(=O)O)cc1Br` (stereo not given) was run?
**A.** Its T/C is 294 % of control and 318 % of control.

**Q.** And the T/C (dose: 28.0 mg/kg/injection, schedule: Q01DX Z (sc), vehicle: other)?
**A.** Its T/C is 356 % of control and 511 % of control.

**Q.** What about the T/C (dose: 46.0 mg/kg/injection, schedule: Q01DX Z (sc), vehicle: other) of the same molecule?
**A.** The T/C was 350 % of control.

**Q.** What about the T/C (dose: 47.0 mg/kg/injection, schedule: Q01DX Z (sc), vehicle: other) of the same molecule?
**A.** The T/C was 838 % of control.

**Q.** And the T/C (dose: 47.1 mg/kg/injection, schedule: Q01DX Z (oral), vehicle: other)?
**A.** The T/C was 200 % of control.

**Q.** What about the T/C (dose: 76.0 mg/kg/injection, schedule: Q01DX Z (sc), vehicle: other) of the same molecule?
**A.** The T/C was 262 % of control.

**Q.** And the T/C (dose: 78.0 mg/kg/injection, schedule: Q01DX Z (sc), vehicle: other)?
**A.** Its T/C is 250 % of control.

**Q.** What about the T/C (dose: 78.1 mg/kg/injection, schedule: Q01DX Z (oral), vehicle: other) of the same molecule?
**A.** Its T/C is 183 % of control.

**Q.** And the T/C (dose: 126.0 mg/kg/injection, schedule: Q01DX Z (sc), vehicle: other)?
**A.** The T/C was 193 % of control.

**Q.** What about the T/C (dose: 130.0 mg/kg/injection, schedule: Q01DX Z (sc), vehicle: other) of the same molecule?
**A.** The T/C was 172 % of control.

**Q.** And the T/C (dose: 130.1 mg/kg/injection, schedule: Q01DX Z (oral), vehicle: other)?
**A.** The T/C was 172 % of control.

**Q.** What about the T/C (dose: 216.0 mg/kg/injection, schedule: Q01DX Z (sc), vehicle: other) of the same molecule?
**A.** Its T/C is 150 % of control.

**Q.** What about the T/C (dose: 216.1 mg/kg/injection, schedule: Q01DX Z (oral), vehicle: other) of the same molecule?
**A.** Its T/C is 166 % of control.

**Q.** And the T/C (dose: 360.0 mg/kg/injection, schedule: Q01DX Z (sc), vehicle: other)?
**A.** The T/C was 155 % of control.

**Q.** What about the T/C (dose: 360.1 mg/kg/injection, schedule: Q01DX Z (oral), vehicle: other) of the same molecule?
**A.** The T/C was 161 % of control.

**Q.** With `[Cl][Pt+2][Cl].[NH-]CC1(C[NH-])CCC1` as the molecule, how does the T/C (dose: 3.12 mg/kg/injection, schedule: Q01DX009 (ip), vehicle: Klucel (hydroxypropylcellulose) (HPC)) read?
**A.** The T/C was 158 % of control.

**Q.** `O=C(Nc1nncs1)c1cccs1` was tested. Which T/C (dose: 50.0 mg/kg/injection, schedule: Q01DX009 (ip), vehicle: saline with Tween-80) did it give?
**A.** The T/C was 99 % of control.

**Q.** What about the T/C (dose: 100.0 mg/kg/injection, schedule: Q01DX009 (ip), vehicle: saline with Tween-80) of the same molecule?
**A.** The T/C was 95 % of control.

**Q.** What about the T/C (dose: 200.0 mg/kg/injection, schedule: Q01DX009 (ip), vehicle: saline with Tween-80) of the same molecule?
**A.** The T/C was 100 % of control.

**Q.** And the T/C (dose: 400.0 mg/kg/injection, schedule: Q01DX009 (ip), vehicle: saline with Tween-80)?
**A.** The T/C was 100 % of control.

**Q.** And the T/C (dose: 800.0 mg/kg/injection, schedule: Q01DX009 (ip), vehicle: saline with Tween-80)?
**A.** Its T/C is 121 % of control.

**Q.** Which results are given for `Nc1n[nH]c(N)n1`?
**A.** T/C (dose: 259.0 mg/kg/injection, schedule: Q01DX Z (sc), vehicle: water): 100 % of control; T/C (dose: 432.0 mg/kg/injection, schedule: Q01DX Z (sc), vehicle: water): 113 % of control; T/C (dose: 720.0 mg/kg/injection, schedule: Q01DX Z (sc), vehicle: water): 118 % of control; T/C (dose: 1200.0 mg/kg/injection, schedule: Q01DX Z (sc), vehicle: water): 122 % of control

**Q.** For `CCOC1=C(N2CC2)C(=O)C(OCC)=C(N2CC2)C1=O`, which T/C (dose: 3.0 mg/kg/injection, schedule: Q01DX Z (sc), vehicle: carboxymethylcellulose (CMC)) is on record?
**A.** The T/C was 113 % of control.

**Q.** And the T/C (dose: 5.0 mg/kg/injection, schedule: Q01DX Z (sc), vehicle: carboxymethylcellulose (CMC))?
**A.** The T/C was 118 % of control.

**Q.** And the T/C (dose: 8.4 mg/kg/injection, schedule: Q01DX Z (sc), vehicle: carboxymethylcellulose (CMC))?
**A.** The T/C was 113 % of control.

**Q.** And the T/C (dose: 14.0 mg/kg/injection, schedule: Q01DX Z (sc), vehicle: carboxymethylcellulose (CMC))?
**A.** Its T/C is 109 % of control.

**Q.** And the T/C (dose: 23.0 mg/kg/injection, schedule: Q01DX Z (sc), vehicle: carboxymethylcellulose (CMC))?
**A.** The T/C was 100 % of control.

**Q.** How did the T/C (dose: 172.8 mg/kg/injection, schedule: Q01DX009 (ip), vehicle: saline) turn out when `O=c1n[n+]([O-])ccn1C1OC(CO)C(O)C1O` (stereo not given) was run?
**A.** Its T/C is 109 % of control.

**Q.** What about the T/C (dose: 288.0 mg/kg/injection, schedule: Q01DX009 (ip), vehicle: saline) of the same molecule?
**A.** The T/C was 123 % of control.

**Q.** And the T/C (dose: 480.0 mg/kg/injection, schedule: Q01DX009 (ip), vehicle: saline)?
**A.** The T/C was 152 % of control.
